{"source": "paper PMC3792051", "about": "“Polyenylpyrrole Derivatives Inhibit NLRP3 Inflammasome Activation and Inflammatory Mediator Expression by Reducing Reactive Oxygen Species Production and Mitogen-Activated Protein Kinase Activation” (PLoS ONE, 2013)", "format_in_all_cases": "cell-based, murine", "key": {"[1]": {"system": "LPS-activated RAW 264.7 macrophages", "assay": "NO production inhibitory assay (Griess reaction)", "procedure": "RAW 264.7 cells seeded in 24-well plates at a density of 5 × 10^5 cells/ml (1 ml) were incubated for 24 h with or without LPS (1 µg/ml) in the absence or presence of the test samples, then NO production was measured indirectly by analysis of nitrite levels using the Griess reaction.\n(§1) To investigate the inhibitory effect of compounds 1h, 1i, and 1n on the LPS-induced inflammatory response, NO levels in the supernatants of RAW 264.7 macrophages incubated with DMSO (vehicle) or compound 1h, 1i, or 1n for 30 min before, and during, incubation for 24 h with LPS (1 µg/ml) were measured by the Griess reaction. […] We next investigated their effect on the expression of iNOS, the NO producing enzyme, using Western blots.\n(§2) Figure 2 Effect of polyenylpyrrole derivatives on the expression of inflammatory mediators in LPS-stimulated RAW 264.7 macrophages. In (A) and (C), the cells (5 × 10^5/ml; 1 ml) were incubated for 30 min with 2.5-40 µM compound 1h, 1i, or 1n or DMSO (vehicle), then LPS (1 µg/ml) was added and incubation continued for 24 h, then NO (A) or IL-6 or TNF-α (C) in the culture medium was assayed by the Griess reaction or ELISA, respectively. In (B), cells (5 × 10^5/ml; 1 ml) were pretreated for 30 min with 2.5-40 µM compound 1h or DMSO, then LPS (1 µg/ml) was added and incubation continued for 24 h, then expression of iNOS and COX-2 was measured by Western blotting. The fold increase is the intensity of the band of interest divided by that of the actin band normalized to the corresponding value for the 0 LPS/0 inhibitor control."}, "[2]": {"system": "LPS-activated RAW 264.7 macrophages", "assay": "IL-6 and TNF-α secretion by ELISA", "procedure": "The effects of the test samples on IL-1β, TNF-α, and IL-6 production were measured by ELISA according to the manufacturer’s instructions. In brief, 50 µl of biotinylated antibody reagent and 50 µl of supernatant were added to a stripwell plate precoated with anti-mouse IL-1β, TNF-α, or IL-6 antibodies, which was then incubated at room temperature for 2 h. After washing the plate three times with washing buffer, 100 µl of diluted streptavidin-HRP concentrate was added to each well and the plate incubated at room temperature for 30 min. The washing process was repeated, then 100 µl of a premixed tetramethylbenzidine substrate solution was added to each well and the plate incubated at room temperature in the dark for 30 min. After addition of 100 µl of stop solution to each well, the absorbance at 450 nm of each well was measured on a microplate reader.\nas §1, §2"}, "[3]": {"system": "NLRP3 inflammasome in LPS + ATP-activated JAWSII cells", "assay": "NLRP3 inflammasome-mediated IL-1β secretion"}, "[4]": {"system": "ATP-activated LPS-primed J774A.1 macrophages", "assay": "PKC-α and AKT phosphorylation by Western blot", "quoted_text": "In (C), LPS-primed J774A.1 macrophages (1 × 10^6/ml; 1 ml) were incubated for 30 min with 20 µM compound 1h or DMSO (vehicle) followed by ATP (5 mM) stimulation for 0-60 min, then phosphorylation of PKC-α was analyzed by Western blotting and expressed as the fold increase measured as the intensity of the PKC-α band divided by that of the actin band normalized to the corresponding value for DMSO at 0 minutes."}, "[5]": {"system": "LPS-activated RAW 264.7 macrophages", "assay": "MAPK (ERK1/2, JNK1/2, p38) phosphorylation by Western blot", "settings": "RAW 264.7, 20 µM 30 min, LPS 1 µg/ml 0-60 min", "procedure": "Cells were washed twice with ice-cold phosphate-buffered saline (PBS) and lysed on ice for 5 min with lysis buffer (20 mM Tris-HCl, pH 7.5, 150 mM NaCl, 1 mM Na 2EDTA, 1 mM EGTA, 1% Triton X-100, 2.5 mM sodium pyrophosphate, 1 mM beta-glycerophosphate, 1 mM Na 3VO4, 1 µg/ml of leupeptin, 1 mM PMSF, protease inhibitor cocktail). The lysate was then centrifuged at 12,000 x g at 4 °C for 10 min and the pellet discarded. […]\nFigure 5 Effect of compound 1h on ROS production and MAPK phosphorylation in LPS-activated macrophages. In (A), RAW 264.7 macrophages (5 × 10^5/ml; 1 ml) were incubated for 30 min with compound 1h (20 µM), N-acetyl cysteine (NAC; 10 mM), or DMSO (vehicle), then 2’, 7’-dichlorofluorescein diacetate (2 µM) was added for 30 min, followed by LPS (1 µg/ml) stimulation for the indicated time, then ROS levels were measured by detection of the mean fluorescence intensity (MFI) of the fluorophore carboxyl-DCF and expressing this value relative to that at time zero. In (B), RAW 264.7 macrophages (5 × 10^5/ml; 1 ml) were incubated for 30 min with compound 1h (20 µM) or DMSO, then LPS (1 µg/ml) was added and incubation continued for 0-60 min, then phosphorylation of ERK1/2, JNK1/2, and p38 was analyzed by Western blotting and expressed relative to actin expression and as a fold increase compared to the control group at 0 time. […]"}, "[6]": {"settings": "RAW 264.7, 2.5-40 µM, LPS 1 µg/ml 24 h"}}}
{"smiles": "O=c1cc(O)cc(/C=C/C=C/C=C/C=C/c2[nH]ccc2Cl)o1", "note": "[compound 1h]", "values": [{"measurement": "NO production by LPS-activated cells", "setting": "[1]; 2.5-40 µM, 30 min before and during LPS 1 µg/ml 24 h", "value": "decreased NO production by LPS-activated cells in a dose-dependent manner"}, {"measurement": "ED50 (inhibition of LPS-induced NO production)", "setting": "[1]; RAW 264.7 macrophages, LPS 1 µg/ml, 24 h, Griess reaction", "value": "15 ± 2", "unit": "µM"}, {"measurement": "NO levels produced by non-activated cells", "setting": "[1]; compound alone, no LPS (data not shown)", "value": "did not alter NO levels produced by non-activated cells"}, {"measurement": "IL-6 production by LPS-activated cells", "setting": "[2]; [6]", "value": "significantly decreased IL-6 production by LPS-activated cells in a dose-dependent manner"}, {"measurement": "TNF-α secretion by LPS-activated cells", "setting": "[2]; [6]", "value": "only slightly and non-significantly reduced"}, {"measurement": "Background levels of IL-6 and TNF-α in non-stimulated macrophages", "setting": "[2]; RAW 264.7, no LPS (data not shown)", "value": "none of the three compounds altered background levels of IL-6 and TNF-α"}, {"measurement": "NLRP3 inflammasome-mediated IL-1β secretion", "setting": "[3]", "value": "reduced NLRP3 inflammasome-mediated interleukin-1β (IL-1β) secretion"}, {"measurement": "ATP-induced PKC-α phosphorylation", "setting": "[4]; LPS-primed J774A.1, 20 µM 30 min, ATP 5 mM 0-60 min", "value": "significant inhibition of ATP-induced PKC-α phosphorylation at 20-60 min"}, {"measurement": "ATP-induced AKT phosphorylation", "setting": "[4]; LPS-primed macrophages (data not shown)", "value": "did not reduce ATP-induced AKT phosphorylation"}, {"measurement": "Phosphorylation of ERK1/2, JNK1/2 and p38", "setting": "[5]", "value": "inhibited phosphorylation of all 3 MAPKs"}]}
